In patent publication US11299480B2, “2-arylsulfonamido-N-arylacetamide derivatized STAT3 inhibitors” (University of Hawaii, priority 2017, dated 2022):
In brackets after ≈: the same amount, converted by molar mass. Like-named read-outs stand apart in the source and are kept apart here.

Legend:
Stat3 = Stat3 (Mus musculus, UniProt P42227); assay type: biochemical
Method: FIG. 1. Effect of select compounds of the present invention on Stat3 DNA-binding activity in vitro. […] Positions of Stat3:DNA complexes in gel are labeled; control lanes (0) represent nuclear extracts pre-treated with 10% DMSO.
Except where indicated, nuclear extracts were pre-incubated with compound for 30 min at room temperature prior to incubation with the radiolabeled probe for 30 min at 30° C. before subjecting to EMSA analysis. Where appropriate, bands corresponding to Stat3:DNA complexes were scanned and quantified for each concentration of compound using ImageJ and plotted as percent of control (DMSO) against concentration of compound, from which the IC50 values were derived.

physchem = conditions: simulated gastric fluid (SGF), pH 1.2, simulated gastric fluid
[1] = Aqueous solubility (PBS, SGF, SIF)
[2] = Stat3 DNA-binding activity in vitro, nuclear extracts pre-incubated with compound 30 min at room temperature, hSIE probe, read-out: EMSA IC50

Chain of Stat3 (P42227 2-770 limits assumed): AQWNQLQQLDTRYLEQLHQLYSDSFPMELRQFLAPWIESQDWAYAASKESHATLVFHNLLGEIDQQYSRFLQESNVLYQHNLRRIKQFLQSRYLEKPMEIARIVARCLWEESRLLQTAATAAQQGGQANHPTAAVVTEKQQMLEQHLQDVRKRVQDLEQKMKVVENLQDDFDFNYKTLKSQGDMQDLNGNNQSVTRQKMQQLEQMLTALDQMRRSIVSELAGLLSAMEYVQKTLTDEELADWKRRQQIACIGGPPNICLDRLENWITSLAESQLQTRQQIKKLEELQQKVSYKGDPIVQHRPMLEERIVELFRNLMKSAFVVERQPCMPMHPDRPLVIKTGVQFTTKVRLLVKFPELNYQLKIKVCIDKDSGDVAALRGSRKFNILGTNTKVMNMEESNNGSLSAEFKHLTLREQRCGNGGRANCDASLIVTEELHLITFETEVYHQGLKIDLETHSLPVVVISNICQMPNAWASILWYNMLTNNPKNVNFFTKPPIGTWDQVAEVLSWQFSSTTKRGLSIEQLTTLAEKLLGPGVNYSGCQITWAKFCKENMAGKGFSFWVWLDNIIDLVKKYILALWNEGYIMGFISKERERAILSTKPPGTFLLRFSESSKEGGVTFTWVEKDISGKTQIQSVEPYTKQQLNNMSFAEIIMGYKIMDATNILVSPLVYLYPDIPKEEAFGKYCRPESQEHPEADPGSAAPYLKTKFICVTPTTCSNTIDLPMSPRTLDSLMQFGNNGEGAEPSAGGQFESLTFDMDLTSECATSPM

Compound	IC50 (Stat3; [2])	further results
O=C(O)c1ccc(N(Cc2ccc(C3CCOCC3)cc2)C(=O)[C@H]2CCCN2S(=O)(=O)c2c(F)c(F)c(F)c(F)c2F)cc1O [Example 27, (R)-2-Hydroxy-4-(1-((pentafluorophenyl)sulfonyl)-N-(4-(tetrahydro-2H-pyran-4-yl)benzyl)pyrrolidine-2-carboxamido)benzoic acid]	5400 nM	
O=C(O)c1ccc(N(Cc2ccc(C3CCOC3)cc2)C(=O)[C@H]2CCCN2S(=O)(=O)c2c(F)c(F)c(F)c(F)c2F)cc1O (stereo partly drawn) [Example 29, 2-Hydroxy-4-((2R)-1-((pentafluorophenyl)sulfonyl)-N-(4-(tetrahydrofuran-3-yl)benzyl)pyrrolidine-2-carboxamido)benzoic acid]	4500 ± 1000 nM	
O=C(O)c1ccc(N(Cc2ccc(C3CCCCC3)cc2)C(=O)[C@H]2CCCCN2S(=O)(=O)c2c(F)c(F)c(F)c(F)c2F)cc1O [Example 32, (R)-4-(N-(4-cyclohexylbenzyl)-1-((pentafluorophenyl)sulfonyl)piperidine-2-carboxamido)-2-hydroxybenzoic acid]	5400 ± 1600 nM	
C[C@H](C(=O)N(Cc1ccc(C2CCCCC2)cc1)c1ccc(C(=O)NO)cc1F)N(C)S(=O)(=O)c1c(F)c(F)c(F)c(F)c1F [Example 38, (R)-4-(N-(4-Cyclohexylbenzyl)-2-((2,3,4,5,6-pentafluoro-N-methylphenyl)sulfonamido)propanamido)-3-fluoro-N-hydroxybenzamide]		solubility (physchem): 0.8 µg/mL (≈ 1.22 µM); solubility in PBS buffer pH 7.4 [1]: 4.7 μg/mL; solubility in simulated intestinal fluid (SIF) [1]: 72 µg/mL (≈ 109 µM); Solubility PBS ([1]; PBS buffer pH 7.4): 4.7 micrograms/milliliter; Solubility SIF ([1]; simulated intestinal fluid): 72 micrograms/milliliter
O=C(O)c1ccc(N(Cc2ccc(C3CCCCC3)cc2)C(=O)[C@H]2CCCN2S(=O)(=O)c2c(F)c(F)c(F)c(F)c2F)c(F)c1 [Example 39, (R)-4-(N-(4-cyclohexylbenzyl)-1-((perfluorophenyl)sulfonyl)pyrrolidine-2-carboxamido)-3-fluorobenzoic acid]	5300 ± 400 nM	
O=C(O)c1ccc(N(Cc2ccc(C3CCCCC3)cc2)C(=O)[C@H]2CCCN2S(=O)(=O)c2c(F)c(F)c(F)c(F)c2F)cc1Cl [Example 46, (R)-2-chloro-4-(N-(4-cyclohexylbenzyl)-1-((perfluorophenyl)sulfonyl)pyrrolidine-2-carboxamido)benzoic acid]	3800 ± 800 nM	
Cc1cc(C(=O)O)cc(C)c1N(Cc1ccc(C2CCCCC2)cc1)C(=O)[C@@H](C)N(C)S(=O)(=O)c1c(F)c(F)c(F)c(F)c1F [Example 47, (R)-4-(N-(4-cyclohexylbenzyl)-2-((2,3,4,5,6-pentafluoro-N-methylphenyl)sulfonamido)propanamido)-3,5-dimethylbenzoic acid]	4200 ± 700 nM	
O=C(O)c1ccc(N(Cc2ccc(C3CCCC3)cc2)C(=O)[C@H]2CCCN2S(=O)(=O)c2c(F)c(F)c(F)c(F)c2F)cc1O [Example 79, (R)-4-(N-(4-cyclopentylbenzyl)-1-((perfluorophenyl)sulfonyl)pyrrolidine-2-carboxamido)-2-hydroxybenzoic acid]	3600 ± 300 nM	
O=C(NO)c1ccc(N(Cc2ccc(C3CCCCC3)cc2)C(=O)[C@H]2CCN2S(=O)(=O)c2c(F)c(F)c(F)c(F)c2F)cc1 [Example 83, (R)—N-(4-cyclohexylbenzyl)-N-(4-(hydroxycarbamoyl)phenyl)-1-((perfluorophenyl)sulfonyl)azetidine-2-carboxamide]	2510 ± 230 nM	
O=C(NO)c1ccc(N(Cc2ccc(C3CCOCC3)cc2)C(=O)[C@H]2CCN2S(=O)(=O)c2c(F)c(F)c(F)c(F)c2F)cc1 [Example 87, (R)—N-(4-(hydroxycarbamoyl)phenyl)-1-((perfluorophenyl)sulfonyl)-N-(4-(tetrahydro-2H-pyran-4-yl)benzyl)azetidine-2-carboxamide]	2920 ± 120 nM	
O=C(NO)c1ccc(N(Cc2ccc(C3CCCC3)cc2)C(=O)[C@H]2CCN2S(=O)(=O)c2c(F)c(F)c(F)c(F)c2F)cc1 [Example 88, (R)—N-(4-cyclopentylbenzyl)-N-(4-(hydroxycarbamoyl)phenyl)-1-((perfluorophenyl)sulfonyl) azetidine-2-carboxamide]	2250 ± 720 nM	
O=C([C@H]1CCN1S(=O)(=O)c1c(F)c(F)c(F)c(F)c1F)N(Cc1ccc(C2CCCCC2)cc1)c1ccc2nc[nH]c2c1 [Example 99, (R)—N-(M-benzo[d]imidazol-6-yl)-N-(4-cyclohexylbenzyl)-1-((perfluorophenyl)sulfonyl)azetidine-2-carboxamide]	2350 ± 546 nM	
O=C([C@H]1CCN1S(=O)(=O)c1c(F)c(F)c(F)c(F)c1F)N(Cc1ccc(C2CCCCC2)cn1)c1ccc2c(=O)[nH]ncc2c1 [Example 102, (R)—N-((5-cyclohexylpyridin-2-yl)methyl)-N-(1-oxo-1,2-dihydrophthalazin-6-yl)-1-((perfluorophenyl)sulfonyl)azetidine-2-carboxamide]	663 ± 182 nM	
O=C(O)c1ccc(N(Cc2ccc(C3CCCCC3)cn2)C(=O)[C@H]2CCN2S(=O)(=O)c2c(F)c(F)c(F)c(F)c2F)cc1F [Example 116, (R)-4-(N-((5-cyclohexylpyridin-2-yl)methyl)-1-((perfluorophenyl)sulfonyl)azetidine-2-carboxamido)-2-fluorobenzoic acid]	856 ± 112 nM	
O=C(O)c1ccc(N(Cc2ccc(C3CCCC3)cn2)C(=O)[C@H]2CCN2S(=O)(=O)c2c(F)c(F)c(F)c(F)c2F)c(F)c1 [Example 124, (R)-4-(N-((5-cyclopentylpyridin-2-yl)methyl)-1-((perfluorophenyl)sulfonyl)azetidine-2-carboxamido)-3-fluorobenzoic acid]	1180 ± 187 nM	
CC(C)(C)c1ccc(CN(C(=O)[C@H]2CCN2S(=O)(=O)c2c(F)c(F)c(F)c(F)c2F)c2ccc(C(=O)O)c(O)c2)cc1 [Example 130, (R)-4-(N-(4-(tert-butyl)benzyl)-1-((perfluorophenyl)sulfonyl)azetidine-2-carboxamido)-2-hydroxybenzoic acid]	2170 ± 298 nM	
CC(C)(C)c1ccc(CN(C(=O)[C@H]2CCN2S(=O)(=O)c2c(F)c(F)c(F)c(F)c2F)c2ccc(C(=O)O)cc2F)cc1 [Example 131, (R)-4-(N-(4-(tert-butyl)benzyl)-1-((perfluorophenyl)sulfonyl)azetidine-2-carboxamido)-3-fluorobenzoic acid]	3550 ± 97 nM	

The remaining compounds from weak to strong by IC50 (Stat3; [2]), led by results:

IC50 (Stat3; [2])	Compound	further results
2110 ± 240 nM	O=C(NO)c1cc(F)c(N(Cc2ccc(C3CCOCC3)cc2)C(=O)[C@H]2CCN2S(=O)(=O)c2c(F)c(F)c(F)c(F)c2F)cc1O [Example 89, (R)—N-(2-fluoro-5-hydroxy-4-(hydroxycarbamoyl)phenyl)-1-((perfluorophenyl)sulfonyl)-N-(4-(tetrahydro-2H-pyran-4-yl)benzyl)azetidine-2-carboxamide]	
2070 ± 120 nM	O=C(NO)c1ccc(N(Cc2ccc(C3CCOCC3)cc2)C(=O)[C@H]2CCN2S(=O)(=O)c2c(F)c(F)c(F)c(F)c2F)cc1O [Example 84, (R)—N-(3-hydroxy-4-(hydroxycarbamoyl)phenyl)-1-((perfluorophenyl)sulfonyl)-N-(4-(tetrahydro-2H-pyran-4-yl)benzyl)azetidine-2-carboxamide]	
1750 ± 190 nM	O=C(NO)c1ccc(N(Cc2ccc(C3CCCCC3)cc2)C(=O)[C@H]2CCN2S(=O)(=O)c2c(F)c(F)c(F)c(F)c2F)c(F)c1 [Example 50, (R)—N-(4-cyclohexylbenzyl)-N-(2-fluoro-4-(hydroxycarbamoyl)phenyl)-1-((perfluorophenyl)sulfonyl)azetidine-2-carboxamide]	
1460 ± 151 nM	O=C([C@H]1CCN1S(=O)(=O)c1c(F)c(F)c(F)c(F)c1F)N(Cc1cnc(C2CCCCC2)cn1)c1ccc2c(=O)[nH]cnc2c1 [Example 151, (R)—N-((5-cyclohexylpyrazin-2-yl)methyl)-N-(4-oxo-3,4-dihydroquinazolin-7-yl)-1-((perfluorophenyl)sulfonyl)azetidine-2-carboxamide]	
1320 ± 360 nM	O=C(NO)c1ccc(N(Cc2ccc(C3CCCCC3)cc2)C(=O)[C@H]2CCN2S(=O)(=O)c2c(F)c(F)c(F)c(F)c2F)cc1O [Example 85, (R)—N-(4-cyclohexylbenzyl)-N-(3-hydroxy-4-(hydroxycarbamoyl)phenyl)-1-((perfluorophenyl)sulfonyl)azetidine-2-carboxamide]	
1050 ± 125 nM	COC(=O)c1ccc(N(Cc2ccc(C3CCCCC3)nc2)C(=O)[C@H]2CCN2S(=O)(=O)c2c(F)c(F)c(F)c(F)c2F)cc1O [Example 92, Methyl (R)-4-(N-((6-cyclohexylpyridin-3-yl)methyl)-1-((perfluorophenyl)sulfonyl)azetidine-2-carboxamido)-2-hydroxybenzoate]	
755 ± 110 nM	O=C(O)c1ccc(N(Cc2ccc(C3CCCCC3)cn2)C(=O)[C@H]2CCN2S(=O)(=O)c2c(F)c(F)c(F)c(F)c2F)c(F)c1 [Example 108, (R)-4-(N-((5-cyclohexylpyridin-2-yl)methyl)-1-((perfluorophenyl)sulfonyl)azetidine-2-carboxamido)-3-fluorobenzoic acid]	
664 ± 167 nM	NC(=O)c1ccc(N(Cc2ccc(C3CCCCC3)cn2)C(=O)[C@H]2CCN2S(=O)(=O)c2c(F)c(F)c(F)c(F)c2F)cc1O [Example 143, (R)—N-(4-carbamoyl-3-hydroxyphenyl)-N-((5-cyclohexylpyridin-2-yl)methyl)-1-((perfluorophenyl)sulfonyl)azetidine-2-carboxamide]	IC50 (Stat3; EMSA, read-out: IC50, inhibition of Stat3 DNA-binding activity in vitro): 664 ± 167 nM
